Assay [1] deals with immature female rats. Briefly: In vivo ovulation model: FSH-matured follicles in immature rats, oocytes in oviduct counted 18 hours after administration. Also noted: species or system rat. The conditions noted are these: FSH pretreated rats. The source says:
The role of FSH in any ovulation induction regimen is for promoting follicular development and maturation, not ovulation induction.
All injections were subcutaneous. Results are expressed as mean plus or minus standard deviations. […] The effects of Compound 1, a known PDE inhibitor, are shown.
Data represent average number of oocytes in oviducts of all rats in each group and frequency of ovulating rats. […] Results are expressed as mean plus or minus standard deviations.
Data represent average number of oocytes in oviducts of all rats in each group and frequency of ovulating rats. Results are expressed as mean plus or minus standard deviations.
Following FSH induced follicular maturation (2.16 IU/rat/injection; bid×2 days) Compound 2 was either injected subcutaneously (subcutis) or administered by oral gavage. Ovulation was determined 18 hours after Compound 2 administration by counting oocytes in oviduct. Data represent average number of oocytes in oviducts of all rats in each group and frequency of ovulating rats. Results are expressed as mean plus or minus standard deviations.
Following FSH induced follicular maturation (2.16 IU/rat/injection; bid×2 days) […] was either injected subcutaneously (subcutis) or administered by oral gavage. Ovulation was determined 18 hours after Compound 2 administration by counting oocytes in oviduct. Data represent average number of oocytes in oviducts of all rats in each group and frequency of ovulating rats. Results are expressed as mean plus or minus standard deviations.

Assay [2] has as its system rat ovarian granulosa cells. Briefly: Rat ovarian granulosa cell cAMP levels in vitro (cAMP RIA of conditioned media). The class given is cell-based. To be noted: 25 micromolar compound with sub-effective (0.1 pM) gonadotropin, 48 hrs, FIG. 2. Here is the method: Ovaries were removed from immature 25 day old, hypophysectomized, diethylstilbesterol treated Sprague-Dawley rats. The ovaries were repeatedly punctured with 27 gauge needles to liberate granulosa cells from the follicles. Cells were washed and re-suspended in McCoys SA media+0.1% BSA+2 μM androstenedione. Viable cells in number of 100,000 were loaded into 6-well tissue culture dishes in a 1.0 ml volume (with Compound 1 and Compound 2 at a concentration of 25 micromolar, either alone or in conjunction with a low, 0.1 pM dose of gonadotropin). Plates were incubated in a 37° C. incubator, 100% humidity, 5.0% CO2 for 48 hrs. Conditioned media were assayed in a cAMP specific radioimmunoassay (RIA). Results are expressed as mean plus or minus standard deviations.

Assay [3] has as its system immature female rats. As to the kind of experiment: Follicle maturation in vivo: co-administration with sub-optimal FSH, then ovulatory hCG, oocytes in oviduct counted. The conditions noted are these: FIG. 3. Set-up: species or system rat. How it is done:
Mature ovarian follicles generated in immature female rats by treatment with a sub-optimal dose of FSH (1.08 IU/rat/injection; bid×3 days) with and without co-administration of Compound 1 (0.1, 1, 10, and 50 mg/kg/injection: bid×3 days). […] The PDE inhibitors were given in conjunction with sub-optimal doses of FSH.
All injections were subcutaneously administered. […] Results are expressed as mean plus or minus standard deviations. […] As also noted in FIG. 3, a PDE inhibitor (Compound 1) inhibited (rather than stimulated) both ovulation administered at 50 mg/kg.

The subject of the next assay is immature rats. As to the kind of experiment: Ovulation and fertility in FSH/PMSG pretreated immature rats. The class given is in vivo, rat. To be noted: single subcutaneous injection, FIG. 10. Here is the method: Follicular maturation was induced in immature rats with FSH (4.33 IU/rat/injection; bid×2 days) and Pregnant Mare's Serum Gonadotropin (PMSG) (1.5 IU/rat/injection; bid X 2 days). […] FSH and PMSG induced rats were then treated with either Compound 2 (12 rats) or vehicle (12 rats) by subcutaneous administration. In one cohort of rats (6 rats per treatment), ovulation was determined 18 hours after Compound 2 or vehicle administration by counting oocytes in oviduct. To assess fertility, another cohort of rats (6 rats per treatment) were individually placed overnight in a cage together with a single adult male rat of proven fertility. The next day, male rats were removed and the females were caged together by group until the day of parturition. The number of live full-term pups observed at the time of parturition was recorded. […] Results for both ovulation and live pups are expressed as mean plus or minus standard deviations.

Setting [4] is: single subcutaneous injection co-administered with sub-effective dose of hCG.
Where [5] appears, read: subcutaneous, compound alone without hCG.
Where [6] appears, read: oral gavage, compound alone without hCG.

SMILES strings stand for the structures.

With `COc1ccc([C@]2(C#N)CC[C@@H](C(=O)O)CC2)cc1OC1CCCC1` [Compound 1, Cis-4-cyano-4-(3-(cyclopentyloxy)-4-methoxyphenyl)cyclohexane-1-carboxylic acid], the “ovulation (oocytes in oviduct)” value in the assay on immature female rats [1] (setting [4]) is recorded as “induction of ovulation”; with immature female rats [1] (setting [5]), “induction of ovulation”; in the assay with immature female rats [3] (50 mg/kg/injection bid x 3 days s.c. with sub-optimal FSH (1.08 IU), ovulatory hCG 20 IU) it was “inhibited”. Further, the cAMP levels result in assay [2] was “significant increase in cAMP levels”. The “ability of a sub-optimal dose of FSH to prepare follicles to ovulate” value with immature female rats [3] (increasing doses 0.1, 1, 10, 50 mg/kg/injection bid x 3 days s.c.) is on record as “failed to enhance”.

`COc1ccc(C(=O)Nc2c(Cl)cncc2Cl)cc1OC1CCCC1` [Compound 2, 3-(Cyclopentyloxy)-N-(3,5-dichloropyridin-4-yl)-4-methoxybenzamide]: the “ovulation (oocytes in oviduct)” value is reported as “induction of ovulation” in the assay on immature female rats [1] (setting [6]); “induction of ovulation” with immature female rats [1] (setting [5]); “induction of ovulation” in the assay with immature rats (FSH/PMSG pretreated rats, 18 hours). Besides, in the assay with immature rats (FSH/PMSG pretreated rats mated overnight), the “number of live full-term pups at parturition” value is “increased number of live pups”. The cAMP levels entry in assay [2] is given as “significant increase in cAMP levels”.

For `CCOc1cc2cc(CO)c(CO)c(-c3ccnc(-n4nc(-c5cccnc5)c5ccccc5c4=O)c3)c2cc1OCC.Cl` [Compound 3, 2-(4-(6,7-Diethoxy-2,3-bis(hydroxymethyl)naphthalen-1-yl)pyridin-2-yl)-4-(3-pyridyl)pthalazin-1(2H)-one hydrochloride], the “ovulation (oocytes in oviduct)” value with immature female rats [1] (setting [6]) and in the assay with immature female rats [1] (setting [5]) was “induction of ovulation” in each case.

Consider `Clc1nc2c(N3CCCC3)nc(N3CCNCC3)nc2nc1NCc1ccccc1` [Compound 4, 7-Benzylamino-6-chloro-2-piperazino-4-pyrrolidinopteridine], for which the “ovulation (oocytes in oviduct)” value with immature female rats [1] (setting [4]) is recorded as “induction of ovulation”; in the assay with immature female rats [1] (setting [5]), “little or no ovulation”.

Values taken from patent publication US7803760B2, “Methods of inducing ovulation” (Merck Serono SA, priority 2000, dated 2010).
